Results reported in patent publication US12030904B2 (priority 2020, dated 2024).
Read-outs that look alike come from different tables or passages of the source.

Tests used:
[1] = test system: Recombinant Respiratory Syncytial virus strain A2 containing the firefly luciferase reporter (RSV-Fluc); test: microbe, parasite or virus in culture; type: cell-based; details: human respiratory syncytial virus, NHBE
SARS-CoV-2 = test: microbe, parasite or virus in culture; type: cell-based
MT4 cytotoxicity (CC50) = details: human, MT4 cells
[2] = 72 h, read-out: RSV-Fluc EC50 (NHBE), NHBE cells, three days, Table 2
[3] = Severe acute respiratory syndrome coronavirus 2, read-out: SARS EC50

Compound | EC50 [1, 2] | EC50 ([1]; read-out: RSV EC50, Table 2a) | EC50 (SARS-CoV-2; [3]) | CC50 (MT4 cytotoxicity (CC50); MT4 CC50, Table 2a) | EC50 ([1]; 72 h, read-out: RSV-Fluc EC50 (NHBE), NHBE cells, three days, Table 1) | EC50 (SARS-CoV-2; Severe acute respiratory syndrome coronavirus 2, 48 h, read-out: SARS-CoV-2 EC50) | CC50 (MT4 cytotoxicity (CC50); MT4 CC50, Table 1a) | EC50 ([1]; read-out: RSV EC50, Table 4) | CC50 (MT4 cytotoxicity (CC50); MT4 CC50, Table 4)
CCCCCCCCCCCCCCCCCCOC[C@H](COP(=O)(O)OC[C@H]1O[C@@](C#N)(c2ccc3c(N)ncnn23)[C@H](O)[C@@H]1O)Oc1cccc(C#N)c1 [Example 30, ((2R,3S,4R,5R)-5-(4-aminopyrrolo[2,1-f][1,2,4]triazin-7-yl)-5-cyano-3,4-dihydroxytetrahydrofuran-2-yl)methyl ((R)-2-(3-cyanophenoxy)-3-(octadecyloxy)propyl) hydrogen phosphate] | 17 nM | 17 nM | 97 nM | 188 nM | – | – | – | – | –
CCCCCCCCCCCCCCCCCCOC[C@H](COP(=O)(O)OC[C@H]1O[C@@](C#N)(c2ccc3c(N)ncnn23)[C@H](O)[C@@H]1O)OCc1ccc(F)c(Cl)c1 [Example 17] | – | – | – | – | 20 nM | 690 nM | 2100 nM | – | –
CCCCCCCCCCCCCCCCCOC[C@H](COP(=O)(O)OC[C@H]1O[C@@](C#N)(c2ccc3c(N)ncnn23)[C@H](O)[C@@H]1O)OCc1cc(F)cc(C#N)c1 [Example 35, ((2R,3S,4R,5R)-5-(4-aminopyrrolo[2,1-f][1,2,4]triazin-7-yl)-5-cyano-3,4-dihydroxytetrahydrofuran-2-yl)methyl ((R)-2-((3-cyano-5-fluorobenzyl)oxy)-3-(heptadecyloxy)propyl) hydrogen phosphate] | – | 40 nM | 112 nM | 425 nM | – | – | – | – | –
CCCCCCCCCCCCCCCCCCOCCCOP(=O)(O)OC[C@H]1O[C@@](C#N)(c2ccc3c(N)ncnn23)[C@H](O)[C@@H]1O [Example 59, ((2R,3S,4R,5R)-5-(4-Aminopyrrolo[2,1-f][1,2,4]triazin-7-yl)-5-cyano-3,4-dihydroxytetrahydrofuran-2-yl)methyl (3-(octadecyloxy)propyl) hydrogen phosphate] | 170 nM | 171 nM | 10000 nM | 19600 nM | – | – | – | – | –
CCCCCCCCCCCCCCCCCCOC[C@H](COP(=O)(O)OC[C@H]1O[C@@](C#N)(c2ccc3c(N)ncnn23)[C@H](O)[C@@H]1O)OCc1cc(F)cc(C(F)(F)F)c1 [Example 19, ((2R,3S,4R,5R)-5-(4-aminopyrrolo[2,1-f][1,2,4]triazin-7-yl)-5-cyano-3,4-dihydroxytetrahydrofuran-2-yl)methyl ((R)-2-((3-fluoro-5-(trifluoromethyl)benzyl)oxy)-3-(octadecyloxy)propyl) hydrogen phosphate] | 180 nM | 182 nM | 2800 nM | 541 nM | – | – | – | – | –
CCCCCCCCCCCCCCCCCCOC[C@H](COP(=O)(O)OC[C@H]1O[C@@](C#N)(c2ccc3c(N)ncnn23)[C@H](O)[C@@H]1O)OCc1ccc(C#N)c(Cl)c1 [Example 23, ((2R,3S,4R,5R)-5-(4-aminopyrrolo[2,1-f][1,2,4]triazin-7-yl)-5-cyano-3,4-dihydroxytetrahydrofuran-2-yl)methyl ((R)-2-((3-chloro-4-cyanobenzyl)oxy)-3-(octadecyloxy)propyl) hydrogen phosphate] | 30 nM | 30 nM | 459 nM | 723 nM | – | – | – | – | –
CCCCCCCCCCCCCCCCCCOC[C@H](COP(=O)(O)OC[C@H]1O[C@@](C#N)(c2ccc3c(N)ncnn23)[C@H](O)[C@@H]1O)OCc1ccc(C)cc1 [Example 40, ((2R,3S,4R,5R)-5-(4-aminopyrrolo[2,1-f][1,2,4]triazin-7-yl)-5-cyano-3,4-dihydroxytetrahydrofuran-2-yl)methyl ((R)-2-((4-methylbenzyl)oxy)-3-(octadecyloxy)propyl) hydrogen phosphate] | 84 nM | 84 nM | 185 nM | 2240 nM | – | – | – | – | –
CCCCCCCCCCCCCCCCCCOC[C@H](COP(=O)(O)OC[C@H]1O[C@@](C#N)(c2ccc3c(N)ncnn23)[C@H](O)[C@@H]1O)OCc1cccc(C(F)F)c1 [Example 32, ((2R,3S,4R,5R)-5-(4-aminopyrrolo[2,1-f][1,2,4]triazin-7-yl)-5-cyano-3,4-dihydroxytetrahydrofuran-2-yl)methyl ((R)-2-((3-(difluoromethyl)benzyl)oxy)-3-(octadecyloxy)propyl) hydrogen phosphate] | – | 64 nM | 3040 nM | 2660 nM | – | – | – | – | –
CCCCCCCCCCCCCCCCCCOC[C@H](COP(=O)(O)OC[C@H]1O[C@@](C#N)(c2ccc3c(N)ncnn23)[C@H](O)[C@@H]1O)Oc1cnc(C#N)nc1 [Example 82, ((2R,3S,4R,5R)-5-(4-aminopyrrolo[2,1-f][1,2,4]triazin-7-yl)-5-cyano-3,4-dihydroxytetrahydrofuran-2-yl)methyl ((R)-2-((2-cyanopyrimidin-5-yl)oxy)-3-(octadecyloxy)propyl) hydrogen phosphate] | – | – | 120 nM | – | – | – | – | 10 nM | 324 nM
CCCCCCCCCCCCCCCCCCOC[C@H](COP(=O)(O)OC[C@H]1O[C@@](C#N)(c2ccc3c(N)ncnn23)[C@H](O)[C@@H]1O)OCc1cccc(F)c1 [Example 45, ((2R,3S,4R,5R)-5-(4-aminopyrrolo[2,1-f][1,2,4]triazin-7-yl)-5-cyano-3,4-dihydroxytetrahydrofuran-2-yl)methyl ((R)-2-((3-fluorobenzyl)oxy)-3-(octadecyloxy)propyl) hydrogen phosphate] | 69 nM | 69 nM | 311 nM | 4420 nM | – | – | – | – | –
CCCCCCCCCCCCCCCCCCOCC(COc1ccccc1)COP(=O)(O)OC[C@H]1O[C@@](C#N)(c2ccc3c(N)ncnn23)[C@H](O)[C@@H]1O (stereo partly drawn) [Example 29, ((2R,3S,4R,5R)-5-(4-aminopyrrolo[2,1-f][1,2,4]triazin-7-yl)-5-cyano-3,4-dihydroxytetrahydrofuran-2-yl)methyl (3-(octadecyloxy)-2-(phenoxymethyl)propyl) hydrogen phosphate] | 140 nM | 140 nM | 3330 nM | 6160 nM | – | – | – | – | –
CCCCCCCCCCCCCCCCCCOC[C@H](COP(=O)(O)OC[C@H]1O[C@@](C#N)(c2ccc3c(N)ncnn23)[C@H](O)[C@@H]1O)OC [Example 44, ((2R,3S,4R,5R)-5-(4-aminopyrrolo[2,1-f][1,2,4]triazin-7-yl)-5-cyano-3,4-dihydroxytetrahydrofuran-2-yl)methyl ((R)-2-methoxy-3-(octadecyloxy)propyl) hydrogen phosphate] | 53 nM | 53 nM | 917 nM | 4000 nM | – | – | – | – | –
CCCCCCCCCCCCCCCCCCOC[C@H](COP(=O)(O)OC[C@H]1O[C@@](C#N)(c2ccc3c(N)ncnn23)[C@H](O)[C@@H]1O)OCc1ccc(C#N)c(F)c1 [Example 67, ((2R,3S,4R,5R)-5-(4-aminopyrrolo[2,1-f][1,2,4]triazin-7-yl)-5-cyano-3,4-dihydroxytetrahydrofuran-2-yl)methyl ((R)-2-((4-cyano-3-fluorobenzyl)oxy)-3-(octadecyloxy)propyl) hydrogen phosphate] | 7.6 nM | 19 nM | 229 nM | 744 nM | – | – | – | – | –
CCCCCCCCCCCCCCOCCCOP(=O)(O)OC[C@H]1O[C@@](C#N)(c2ccc3c(N)ncnn23)[C@H](O)[C@@H]1O [Example 58, ((2R,3S,4R,5R)-5-(4-Aminopyrrolo[2,1-f][1,2,4]triazin-7-yl)-5-cyano-3,4-dihydroxytetrahydrofuran-2-yl)methyl (3-(tetradecyloxy)propyl) hydrogen phosphate] | 70 nM | 70 nM | 10000 nM | 13000 nM | – | – | – | – | –
CCCCCCCCCCCCCCCCCCOC[C@H](COP(=O)(O)OC[C@H]1O[C@@](C#N)(c2ccc3c(N)ncnn23)[C@H](O)[C@@H]1O)OCc1ccc(C#N)cc1F [Example 53, ((2R,3S,4R,5R)-5-(4-aminopyrrolo[2,1-f][1,2,4]triazin-7-yl)-5-cyano-3,4-dihydroxytetrahydrofuran-2-yl)methyl ((R)-2-((4-cyano-2-fluorobenzyl)oxy)-3-(octadecyloxy)propyl) hydrogen phosphate] | – | 32 nM | 912 nM | 1840 nM | – | – | – | – | –
CCCCCCCCCCCCCCCCOC[C@H](COP(=O)(O)OC[C@H]1O[C@@](C#N)(c2ccc3c(N)ncnn23)[C@H](O)[C@@H]1O)OCc1ccc(C#N)cc1 [Example 96, ((2R,3S,4R,5R)-5-(4-aminopyrrolo[2,1-f][1,2,4]triazin-7-yl)-5-cyano-3,4-dihydroxytetrahydrofuran-2-yl)methyl ((R)-2-((4-cyanobenzyl)oxy)-3-(hexadecyloxy)propyl) hydrogen phosphate] | – | – | 43 nM | – | – | – | – | 23 nM | 511 nM
CCCCCCCCCCCCCCCCOCCCCOP(=O)(O)OC[C@H]1O[C@@](C#N)(c2ccc3c(N)ncnn23)[C@H](O)[C@@H]1O [Example 25, ((2R,3S,4R,5R)-5-(4-aminopyrrolo[2,1-f][1,2,4]triazin-7-yl)-5-cyano-3,4-dihydroxytetrahydrofuran-2-yl)methyl (4-(hexadecyloxy)butyl) hydrogen phosphate] | 70 nM | 263 nM | 7460 nM | 48900 nM | – | – | – | – | –
CCCCCCCCCCCCCCCCCCOC[C@H](COP(=O)(O)OC[C@H]1O[C@@](C#N)(c2ccc3c(N)ncnn23)[C@H](O)[C@@H]1O)OCc1c(F)cccc1F [Example 43, ((2R,3S,4R,5R)-5-(4-aminopyrrolo[2,1-f][1,2,4]triazin-7-yl)-5-cyano-3,4-dihydroxytetrahydrofuran-2-yl)methyl ((R)-2-((2,6-difluorobenzyl)oxy)-3-(octadecyloxy)propyl) hydrogen phosphate] | 68 nM | 68 nM | 139 nM | 1470 nM | – | – | – | – | –
